{
  "source": "PubChem BioAssay AID2060882",
  "about": "(Molecular Pharmacology Branch, DTP, NCI, 2025)",
  "system": "898857-211-R-J1-PDC complex spheroids, growth % test/control",
  "assay": "Anticancer human tumor 898857-211-R-J1-PDC patient-derived melanoma cell line growth inhibition [RAS]",
  "conditions": "for viability, T/C: stronger effect = lower value",
  "excerpt": "RAS pathway inhibitors in Combinations in Complex Spheroids\nA high-throughput screen of multi-cell type tumor spheroids was designed to identify active combinations of RAS pathway inhibitors and targeted small molecules. Complex spheroids include a stromal component modeled by human endothelial cells (HUVEC) and fibroblasts modeled by human mesenchymal stem cells (MSCs). The concentration ranges selected for each drug and investigational agent were based upon clinically achievable concentrations if the clinical Cmax of the agent was known.\nCompounds. The drugs and investigational agents: abemaciclib (NSC768073), cobimetinib (NSC768068), divarasib (GDC6063, NSC841802), docetaxel (NSC628503), GDC-1971 (RLY-1971, NSC841576), gemcitabine (NSC613327), inavolisib (NSC800729), ipatasertib (NSC767898), KB-0742 (NSC834161), MRTX-1133 (NSC836407), osimertinib (NSC779217), RMC-4630 (NSC839698), RMC-6236 (NSC851965), RMC-6291 (NSC852671), Ro-3306 (NSC812927), sapanisertib (NSC764658), SN-38 (NSC673596), staurosporine (NSC755774), SY5609 (NSC837396), and tovorafenib (DAY101, NSC766906), were obtained from the National Cancer Institute (NCI) Developmental Therapeutics Program Chemical Repository. The FDA-approved anticancer drug set is available from the NCI Developmental Therapeutics Program. […] The stock solutions were prepared in dimethyl sulfoxide (DMSO, Sigma-Aldrich, St. Louis, MO, cat. D2650) at 800-fold the tested concentration and stored at -70 degrees C prior to their use. All drugs and investigational agents were tested over a range starting from a high concentration at or near the clinical Cmax and decreasing in half-log increments. If the clinical Cmax for an agent had not been determined, the highest concentration tested was 10 microM.\nCell Culture. All cells were maintained in an incubator at 37 degrees C and 5% CO2 with 95% humidity. The PDC lines were cultured according to standard operating procedures established by the NCI PDMR. All PDCs were thawed and cultured in Matrigel-coated flasks prepared with a working solution of 1X Ham's F-12 nutrient mix, without supplementation (Invitrogen, Waltham, MA, cat. 11765054), 100 U/mL penicillin-streptomycin (Invitrogen, cat. 15140122), and 2.5% Matrigel (Corning Inc., Corning, NY, cat. 354248) for the first three passages. The 362531-283-R-J2-PDC and 782815-120-R-J1-PDC lines were cultured in 6C/Colon 1B media, which includes advanced DMEM/F-12 (Thermo Fisher Scientific, cat. 12634028), 10 mM HEPES (Thermo Fisher Scientific, cat. 15630080), 1X GlutaMAX supplement (Thermo Fisher Scientific, cat. 35050061), 0.1 mg/mL primocin (InvivoGen, San Diego, CA, cat. ant-pm-2), 10% defined fetal bovine serum, heat inactivated (HyClone Laboratories Inc., Logan, UT, cat. SH30070.03HI), 50% L-WRN conditioned media (ATCC, cat. CRL-3276), 1.25 mM N-Acetyl-L-cysteine (Sigma-Aldrich, cat. A9165), 10 mM nicotinamide (Sigma-Aldrich, cat. N0636), 1X B-27 supplement (Thermo Fisher Scientific, cat. 17504044), 1X N-2 supplement (Thermo Fisher Scientific, cat. 17502048), 50 ng/mL human EGF (Thermo Fisher Scientific, cat. PHG0311), and 10 microM Y-27632 dihydrochloride (Tocris Bioscience, cat. 1254). The K12877-001-R-J1-PDC line was cultured in 6I media, which includes all 6C/Colon 1B media plus 10 ng/mL human FGF-10 (PeproTech, cat. 100-26), 1 ng/mL human FGF-2 (PeproTech, cat. 100-18B), 1 µM prostaglandin E2 (Tocris Bioscience, cat. 2296), […] hydrocortisone (Sigma-Aldrich, cat. H4001), and […] bovine insulin (Sigma-Aldrich, cat. I6634). The K86415-001-R-J1-PDC line was cultured in 6D media, which includes all 6C/Colon 1B media components minus the L-WRN conditioned media. The 485176-168-R4-J1-PDC was cultured in PANC media, which includes all 6C/Colon 1B media plus 100 ng/mL human FGF-10 (PeproTech, cat. 100-26), 500 nM SB-431542 (Selleckchem, cat. S1067), and 10 nM gastrin (Tocris Bioscience, cat. 3006). […]",
  "data": [
    {"compound": "Nc1ccn(C2OC(CO)C(O)C2(F)F)c(=O)n1", "note": "(stereo not given);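 further: spheroids exposed to compound for seven days before readout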;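 on viability, T/C: 100% = DMSO vehicle control wells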", "values": [
      {"measurement": "viability, T/C", "setting": "compound 0.01 µM", "result": "30.2% [middle of 4 runs]"},
      {"measurement": "viability, T/C", "setting": "compound 0.0316 µM", "result": "6.09% [middle of 4 runs]"},
      {"measurement": "viability, T/C", "setting": "compound 0.1 µM", "result": "4.85% [middle of 4 runs]"},
      {"measurement": "viability, T/C", "setting": "compound 0.316 µM", "result": "4.59% [middle of 4 runs]"},
      {"measurement": "viability, T/C", "setting": "compound 1 µM", "result": "4.83% [middle of 4 runs]"},
      {"measurement": "IC50", "setting": "curve of compound", "result": "7.17 nM [middle of 4 runs]"}
    ]},
    {"compound": "CC(=O)OC12COC1CC(O)C1(C)C(=O)C(O)C3=C(C)C(OC(=O)C(O)C(NC(=O)OC(C)(C)C)c4ccccc4)CC(O)(C(OC(=O)c4ccccc4)C21)C3(C)C", "note": "(stereo not given)", "values": [
      {"measurement": "viability, T/C", "setting": "compound 0.0316 µM", "result": "13% [middle of 4 runs]"},
      {"measurement": "viability, T/C", "setting": "compound 0.1 µM", "result": "13% [middle of 4 runs]"},
      {"measurement": "viability, T/C", "setting": "compound 0.316 µM", "result": "13.3% [middle of 4 runs]"},
      {"measurement": "viability, T/C", "setting": "compound 1 µM", "result": "15.8% [middle of 4 runs]"},
      {"measurement": "viability, T/C", "setting": "compound 3.16 µM", "result": "17.8% [middle of 4 runs]"},
      {"measurement": "viability, T/C", "setting": "compound 10 µM", "result": "20.8% [middle of 4 runs]"},
      {"measurement": "IC50", "setting": "curve of compound", "result": "< 0.0316", "unit": "µM"}
    ]},
    {"compound": "NC1c2ccccc2OC12CCN(c1cnc3c(N4CCCc5ncccc54)n[nH]c3n1)CC2", "note": "(stereo not given) + C#Cc1c(F)ccc2cc(O)cc(-c3ncc4c(N5CC6CCC(C5)N6)nc(OCC56CCCN5CC(F)C6)nc4c3F)c12", "values": [
      {"measurement": "IC50", "setting": "curve of first compound, second compound 0.0316 µM", "result": "> 10", "unit": "µM"},
      {"measurement": "IC50", "setting": "curve of first compound, second compound 0.1 µM", "result": "> 10", "unit": "µM"},
      {"measurement": "IC50", "setting": "curve of first compound, second compound 0.316 µM", "result": "> 10", "unit": "µM"},
      {"measurement": "IC50", "setting": "curve of first compound, second compound 1 µM", "result": "> 10", "unit": "µM"},
      {"measurement": "IC50", "setting": "curve of first compound, second compound 3.16 µM", "result": "> 10", "unit": "µM"},
      {"measurement": "IC50", "setting": "curve of first compound, second compound 10 µM", "result": 0.0357, "unit": "µM"},
      {"measurement": "viability, T/C", "setting": "second compound 0.0316 µM, first compound 0.0316 µM", "result": 95.6, "unit": "%"},
      {"measurement": "viability, T/C", "setting": "second compound 0.0316 µM, first compound 0.1 µM", "result": 90.5, "unit": "%"},
      {"measurement": "viability, T/C", "setting": "second compound 0.0316 µM, first compound 0.316 µM", "result": 90.5, "unit": "%"},
      {"measurement": "viability, T/C", "setting": "second compound 0.0316 µM, first compound 1 µM", "result": 88.5, "unit": "%"},
      {"measurement": "viability, T/C", "setting": "second compound 0.0316 µM, first compound 3.16 µM", "result": 91.5, "unit": "%"},
      {"measurement": "viability, T/C", "setting": "second compound 0.0316 µM, first compound 10 µM", "result": 74.9, "unit": "%"},
      {"measurement": "viability, T/C", "setting": "second compound 0.1 µM, first compound 0.0316 µM", "result": 91.8, "unit": "%"},
      {"measurement": "viability, T/C", "setting": "second compound 0.1 µM, first compound 0.1 µM", "result": 89.3, "unit": "%"},
      {"measurement": "viability, T/C", "setting": "second compound 0.1 µM, first compound 0.316 µM", "result": 103, "unit": "%"},
      {"measurement": "viability, T/C", "setting": "second compound 0.1 µM, first compound 1 µM", "result": 91.7, "unit": "%"},
      {"measurement": "viability, T/C", "setting": "second compound 0.1 µM, first compound 3.16 µM", "result": 87.3, "unit": "%"},
      {"measurement": "viability, T/C", "setting": "second compound 0.1 µM, first compound 10 µM", "result": 74.4, "unit": "%"},
      {"measurement": "viability, T/C", "setting": "second compound 0.316 µM, first compound 0.0316 µM", "result": 99.5, "unit": "%"},
      {"measurement": "viability, T/C", "setting": "second compound 0.316 µM, first compound 0.1 µM", "result": 98, "unit": "%"},
      {"measurement": "viability, T/C", "setting": "second compound 0.316 µM, first compound 0.316 µM", "result": 94, "unit": "%"},
      {"measurement": "viability, T/C", "setting": "second compound 0.316 µM, first compound 1 µM", "result": 88.1, "unit": "%"},
      {"measurement": "viability, T/C", "setting": "second compound 0.316 µM, first compound 3.16 µM", "result": 88.7, "unit": "%"},
      {"measurement": "viability, T/C", "setting": "second compound 0.316 µM, first compound 10 µM", "result": 77.1, "unit": "%"},
      {"measurement": "viability, T/C", "setting": "second compound 1 µM, first compound 0.0316 µM", "result": 109, "unit": "%"},
      {"measurement": "viability, T/C", "setting": "second compound 1 µM, first compound 0.1 µM", "result": 105, "unit": "%"},
      {"measurement": "viability, T/C", "setting": "second compound 1 µM, first compound 0.316 µM", "result": 100, "unit": "%"},
      {"measurement": "viability, T/C", "setting": "second compound 1 µM, first compound 1 µM", "result": 91.5, "unit": "%"},
      {"measurement": "viability, T/C", "setting": "second compound 1 µM, first compound 3.16 µM", "result": 103, "unit": "%"},
      {"measurement": "viability, T/C", "setting": "second compound 1 µM, first compound 10 µM", "result": 76, "unit": "%"},
      {"measurement": "viability, T/C", "setting": "second compound 3.16 µM, first compound 0.0316 µM", "result": 102, "unit": "%"},
      {"measurement": "viability, T/C", "setting": "second compound 3.16 µM, first compound 0.1 µM", "result": 93.7, "unit": "%"},
      {"measurement": "viability, T/C", "setting": "second compound 3.16 µM, first compound 0.316 µM", "result": 109, "unit": "%"},
      {"measurement": "viability, T/C", "setting": "second compound 3.16 µM, first compound 1 µM", "result": 99.5, "unit": "%"},
      {"measurement": "viability, T/C", "setting": "second compound 3.16 µM, first compound 3.16 µM", "result": 95.9, "unit": "%"},
      {"measurement": "viability, T/C", "setting": "second compound 3.16 µM, first compound 10 µM", "result": 50.4, "unit": "%"},
      {"measurement": "viability, T/C", "setting": "second compound 10 µM, first compound 0.0316 µM", "result": 49, "unit": "%"},
      {"measurement": "viability, T/C", "setting": "second compound 10 µM, first compound 0.1 µM", "result": 48, "unit": "%"},
      {"measurement": "viability, T/C", "setting": "second compound 10 µM, first compound 0.316 µM", "result": 25.5, "unit": "%"},
      {"measurement": "viability, T/C", "setting": "second compound 10 µM, first compound 1 µM", "result": 22.5, "unit": "%"},
      {"measurement": "viability, T/C", "setting": "second compound 10 µM, first compound 3.16 µM", "result": 9.18, "unit": "%"},
      {"measurement": "viability, T/C", "setting": "second compound 10 µM, first compound 10 µM", "result": 2.12, "unit": "%"}
    ]}
  ]
}
